# According to paper PMC10252594 (Cancers, 2023):
# Where “and” joins values, the source holds several entries; their conditions need not be identical. Equal entries are not always repeated.
# What was measured:
# LAPC-4 xenografts = test: Fatty acid determination (GC-FID) in LAPC-4 xenograft experiment; assay type: in vivo, mice; conditions: LAPC-4 tumor, 10 mg/kg PO
# Protocol: […] The fatty acid profile was next determined by gas chromatography (GC), coupled with a flame ionization detector (FID), using phosphatidylcholine C21:0 (Avanti Polar Lipids) as an internal standard. The GC model 5890 was from Agilent Technologies (Mississauga, ON, Canada). The capillary column used was a HP-88 (100 m × 0.25 mm, […], Agilent Technologies), and the carrier gas was helium at 1.5 mL/min. A total of 56 fatty acids were identified according to their retention time, using fatty acid mixtures as standards.
# LAPC-4 cells = test: Total cholesterol in LAPC-4 cells (kit); assay type: cell-based, human; conditions: RM-581 2 μM or atorvastatin 10 μM; for Total cholesterol concentration in LAPC-4 cells: Table S2
# Protocol: A cholesterol quantification kit provided by Sigma-Aldrich (Catalog Number MAK043) was used following the manufacturer’s instructions to determine the concentration of total cholesterol, free cholesterol, and cholesteryl ester in samples. The cholesterol contents were measured in samples from two different protocols. […] Secondly, in tumor, liver, and plasma obtained at the end of the LAPC-4 xenograft experiment (control group and the group treated with RM-581 at 10 mg/kg/PO).
# LNCaP = tested on: LNCaP; design: method as in PMID 34681843; conditions: AR positive, three days, MTS; cited from earlier work
smiles,measurement,setting,value
C#C[C@]1(O)CC[C@H]2[C@@H]3CCc4cc(OC)c(N5CCN(C(=O)[C@@H]6CCCN6C(=O)c6ccc7ccccc7n6)CC5)cc4[C@H]3CC[C@@]21C [RM-581],"Erucic acid w9 22:1, FA RM-581","LAPC-4 xenografts; 28 days, Table S1",0.025 mg/g
same,"Erucic acid w9 22:1, FA RM-581 % of total","LAPC-4 xenografts; 28 days, Table S1",0.10%
same,"FA (1c) w14 15:1, FA RM-581","LAPC-4 xenografts; 28 days, Table S1",0 mg/g
same,"FA (1c) w14 15:1, FA RM-581 % of total","LAPC-4 xenografts; 28 days, Table S1",0%
same,"FA (5c) w10 15:1, FA RM-581","LAPC-4 xenografts; 28 days, Table S1",0 mg/g
same,"FA (5c) w10 15:1, FA RM-581 % of total","LAPC-4 xenografts; 28 days, Table S1",0%
same,"FA (5t) w10 15:1, FA RM-581","LAPC-4 xenografts; 28 days, Table S1",0 mg/g
same,"FA (5t) w10 15:1, FA RM-581 % of total","LAPC-4 xenografts; 28 days, Table S1",0%
same,"FA (7c) w10 17:1, FA RM-581","LAPC-4 xenografts; 28 days, Table S1",0.05 mg/g
same,"FA (7c) w10 17:1, FA RM-581 % of total","LAPC-4 xenografts; 28 days, Table S1",0.20%
same,"FA (7t) w10 17:1, FA RM-581","LAPC-4 xenografts; 28 days, Table S1",0.02 mg/g
same,"FA (7t) w10 17:1, FA RM-581 % of total","LAPC-4 xenografts; 28 days, Table S1",0.09%
same,"FA (8c11c14c17c) w3 20:4, FA RM-581","LAPC-4 xenografts; 28 days, Table S1",0.04 mg/g
same,"FA (8c11c14c17c) w3 20:4, FA RM-581 % of total","LAPC-4 xenografts; 28 days, Table S1",0.16%
same,"FA (8c) w12 20:1, FA RM-581","LAPC-4 xenografts; 28 days, Table S1",0 mg/g
same,"FA (8c) w12 20:1, FA RM-581 % of total","LAPC-4 xenografts; 28 days, Table S1",0%
same,"FA (9c12t) w6 18:2, FA RM-581","LAPC-4 xenografts; 28 days, Table S1",0.02 mg/g
same,"FA (9c12t) w6 18:2, FA RM-581 % of total","LAPC-4 xenografts; 28 days, Table S1",0.09%
same,"FA (9t12c) w6 18:2, FA RM-581","LAPC-4 xenografts; 28 days, Table S1",0 mg/g
same,"FA (9t12c) w6 18:2, FA RM-581 % of total","LAPC-4 xenografts; 28 days, Table S1",0%
same,"FA (9t12t15t) w3 18:3, FA RM-581","LAPC-4 xenografts; 28 days, Table S1",0.01 mg/g
same,"FA (9t12t15t) w3 18:3, FA RM-581 % of total","LAPC-4 xenografts; 28 days, Table S1",0.03%
same,"FA (9t) w5 14:1, FA RM-581","LAPC-4 xenografts; 28 days, Table S1",0.01 mg/g
same,"FA (9t) w5 14:1, FA RM-581 % of total","LAPC-4 xenografts; 28 days, Table S1",0.03%
same,"FA (9t) w13 22:1, FA RM-581","LAPC-4 xenografts; 28 days, Table S1",0 mg/g
same,"FA (9t) w13 22:1, FA RM-581 % of total","LAPC-4 xenografts; 28 days, Table S1",0%
same,"FA (11c14c17c) w3 20:3, FA RM-581","LAPC-4 xenografts; 28 days, Table S1",0 mg/g
same,"FA (11c14c17c) w3 20:3, FA RM-581 % of total","LAPC-4 xenografts; 28 days, Table S1",0%
same,"FA (11c14c) w6 20:2, FA RM-581","LAPC-4 xenografts; 28 days, Table S1",0.08 mg/g
same,"FA (11c14c) w6 20:2, FA RM-581 % of total","LAPC-4 xenografts; 28 days, Table S1",0.34%
same,"FA (12c) w6 18:1, FA RM-581","LAPC-4 xenografts; 28 days, Table S1",0 mg/g
same,"FA (12c) w6 18:1, FA RM-581 % of total","LAPC-4 xenografts; 28 days, Table S1",0%
same,"FA (13c16c19c) w3 22:3, FA RM-581","LAPC-4 xenografts; 28 days, Table S1",0 mg/g
same,"FA (13c16c19c) w3 22:3, FA RM-581 % of total","LAPC-4 xenografts; 28 days, Table S1",0%
same,"FA (13c16c) w6 22:2, FA RM-581","LAPC-4 xenografts; 28 days, Table S1",0.01 mg/g
same,"FA (13c16c) w6 22:2, FA RM-581 % of total","LAPC-4 xenografts; 28 days, Table S1",0.04%
same,"FA (13c) w5 18:1, FA RM-581","LAPC-4 xenografts; 28 days, Table S1",0.02 mg/g
same,"FA (13c) w5 18:1, FA RM-581 % of total","LAPC-4 xenografts; 28 days, Table S1",0.07%
same,"Gamma-linolenic acid (6c9c12c) w6 18:3, FA RM-581","LAPC-4 xenografts; 28 days, Table S1",0.05 mg/g
same,"Gamma-linolenic acid (6c9c12c) w6 18:3, FA RM-581 % of total","LAPC-4 xenografts; 28 days, Table S1",0.19%
same,"Gondoic acid (11c) w9 20:1, FA RM-581","LAPC-4 xenografts; 28 days, Table S1",0.08 mg/g
same,"Gondoic acid (11c) w9 20:1, FA RM-581 % of total","LAPC-4 xenografts; 28 days, Table S1",0.32%
same,"Isobranched 17:0, FA RM-581","LAPC-4 xenografts; 28 days, Table S1",0.02 mg/g
same,"Isobranched 17:0, FA RM-581 % of total","LAPC-4 xenografts; 28 days, Table S1",0.08%
same,"Lauric acid 12:0, FA RM-581","LAPC-4 xenografts; 28 days, Table S1",0.02 mg/g
same,"Lauric acid 12:0, FA RM-581 % of total","LAPC-4 xenografts; 28 days, Table S1",0.10%
same,"Linolelaidic acid (9t12t) w6 18:2, FA RM-581","LAPC-4 xenografts; 28 days, Table S1",0.03 mg/g
same,"Linolelaidic acid (9t12t) w6 18:2, FA RM-581 % of total","LAPC-4 xenografts; 28 days, Table S1",0.14%
same,"Myristoleic acid (9c) w5 14:1, FA RM-581","LAPC-4 xenografts; 28 days, Table S1",0.02 mg/g
same,"Myristoleic acid (9c) w5 14:1, FA RM-581 % of total","LAPC-4 xenografts; 28 days, Table S1",0.06%
same,"Palmitelaidic acid (9t) w1 16:1, FA RM-581","LAPC-4 xenografts; 28 days, Table S1",0 mg/g
same,"Palmitelaidic acid (9t) w1 16:1, FA RM-581 % of total","LAPC-4 xenografts; 28 days, Table S1",0%
same,"Pentadecanoic acid 15:0, FA RM-581","LAPC-4 xenografts; 28 days, Table S1",0.04 mg/g
same,"Pentadecanoic acid 15:0, FA RM-581 % of total","LAPC-4 xenografts; 28 days, Table S1",0.17%
same,"Petroselaidic acid (6t) w12 18:1, FA RM-581","LAPC-4 xenografts; 28 days, Table S1",0 mg/g
same,"Petroselaidic acid (6t) w12 18:1, FA RM-581 % of total","LAPC-4 xenografts; 28 days, Table S1",0%
same,"Petroselinic acid (7c-n11/6c-n12) w11/12 18:1, FA RM-581","LAPC-4 xenografts; 28 days, Table S1",0 mg/g
same,"Petroselinic acid (7c-n11/6c-n12) w11/12 18:1, FA RM-581 % of total","LAPC-4 xenografts; 28 days, Table S1",0%
same,"Stearidonic acid (6c9c12c15c) w3 18:4, FA RM-581","LAPC-4 xenografts; 28 days, Table S1",0 mg/g
same,"Stearidonic acid (6c9c12c15c) w3 18:4, FA RM-581 % of total","LAPC-4 xenografts; 28 days, Table S1",0%
same,"Timnodonic acid (5c8c11c14c17c) w3 20:5, FA RM-581","LAPC-4 xenografts; 28 days, Table S1",0.025 mg/g
same,"Timnodonic acid (5c8c11c14c17c) w3 20:5, FA RM-581 % of total","LAPC-4 xenografts; 28 days, Table S1",0.10%
same,"Trans-vaccenic acid (11t) w7 18:1, FA RM-581","LAPC-4 xenografts; 28 days, Table S1",0.03 mg/g
same,"Trans-vaccenic acid (11t) w7 18:1, FA RM-581 % of total","LAPC-4 xenografts; 28 days, Table S1",0.13%
same,increase in linoleic acid level inside the tumors,LAPC-4 xenografts; 10 mg/kg,1.59 mg/g and ~ 5.7 mM
same,increase in oleic acid level inside the tumors,LAPC-4 xenografts; 10 mg/kg,1.26 mg/g and ~ 4.5 mM
same,Total cholesterol in LAPC-4 cells vs untreated cells,"LAPC-4 cells; 18, 36, or 72 h",did not show a significant difference
same,Total cholesterol concentration in LAPC-4 cells,LAPC-4 cells; 18 h,68 ± 3
same,Total cholesterol concentration in LAPC-4 cells,LAPC-4 cells; 36 h,69 ± 6
same,Total cholesterol concentration in LAPC-4 cells,"LAPC-4 cells; 72 h (first line, control 66 ± 2)",69 ± 4
same,IC50,LNCaP,1200 nM
